Data taken from PubChem BioAssay (NCI).
Values joined by “and” are separate entries in the source; they are usually repeats but may differ in a detail not shown here. Equal entries are not always repeated.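 Assay format: 96-well plates, 48-hour exposure. GI50 = concentration required for 50% inhibition of growth. TGI: total growth inhibition.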

Assays:
Test in all cases: NCI tumour cell line growth inhibition, 48 h
XF 498 CNS = system: XF 498 CNS
KM20L2 colon = system: KM20L2 colon
SNB-75 CNS = system: SNB-75 CNS
DMS 114 small cell lung = system: DMS 114 small cell lung
HOP-18 NSCLC = system: HOP-18 NSCLC
ACHN renal = system: ACHN renal
DLD-1 colon = system: DLD-1 colon
SNB-78 CNS = system: SNB-78 CNS
DMS 273 small cell lung = system: DMS 273 small cell lung
UACC-257 melanoma = system: UACC-257 melanoma
SF-268 CNS = system: SF-268 CNS
SR leukemia = system: SR leukemia
LXFL 529 NSCLC = system: LXFL 529 NSCLC
MDA-N = system: MDA-N
786-0 renal = system: 786-0 renal
NCI/ADR-RES ovarian = system: NCI/ADR-RES ovarian

Compound	TGI (XF 498 CNS)	TGI (KM20L2 colon)	TGI (SNB-75 CNS)	TGI (DMS 114 small cell lung)	TGI (HOP-18 NSCLC)	TGI (ACHN renal)	TGI (DLD-1 colon)	TGI (SNB-78 CNS)	TGI (DMS 273 small cell lung)	TGI (UACC-257 melanoma)	TGI (SF-268 CNS)	TGI (SR leukemia)	TGI (LXFL 529 NSCLC)	TGI (MDA-N)	TGI (786-0 renal)	TGI (NCI/ADR-RES ovarian)	GI50 (SNB-75 CNS)	GI50 (SF-268 CNS)	GI50 (UACC-257 melanoma)	GI50 (NCI/ADR-RES ovarian)
O=C(O)C1=C(CO)Oc2cc3c(cc2C1c1ccc2c(c1)OCO2)OCO3 (configuration not stated)	> 100 µM	> 100 µM	> 100 µM	> 100 µM	> 100 µM	> 100 µM	> 100 µM	> 100 µM	> 100 µM	> 100 µM										
Nc1[nH]c(=O)nc2c1cnn2COCCO	> 100 µM	6.85 µM	> 100 µM	> 100 µM	> 100 µM	> 100 µM	> 100 µM	> 100 µM	> 100 µM	> 100 µM	> 100 µM	> 100 µM	> 100 µM							
C/C=C\C1OC1(C)c1cc(=O)c2c(C)cc3c(c2o1)C(=O)c1c(O)c(C2CC(C)(N(C)C)C(OC(C)=O)C(C)O2)cc(C2CC(N(C)C)C(O)C(C)O2)c1C3=O (configuration not stated)			0.0067 µM			0.00575 µM				0.0366 µM	0.0721 µM			8.57 nM	15.8 nM					
CCCCC(CC)C(=O)Oc1ccc(C(=O)c2ccccc2)c(O)c1 (configuration not stated)			74.3 µM			> 100 µM				> 100 µM	> 100 µM			> 100000 nM		> 100000 nM				
c1ccc(-c2cc3nc4ccccc4nc3cc(-c3ccccc3)[nH][nH]2)cc1			99.1 µM			77.9 µM				> 100 µM	> 100 µM	> 100 µM		> 100000 nM	> 100000 nM	> 100000 nM				
O=P1(Oc2ccc(Cl)cc2Cl)Oc2cc3ccccc3cc2O1	> 100 µM	> 100 µM	> 100 µM	> 89.3 µM	> 100 µM		> 100 µM	> 100 µM	> 100 µM	> 100 µM	> 100 µM					> 100000 nM				
C=C(C)[C@@H]1CC[C@]2(C(=O)O)CC[C@]3(C)[C@H](CC[C@@H]4[C@@]5(C)C/C(=C/c6ccco6)C(=O)C(C)(C)[C@@H]5CC[C@]43C)[C@@H]12			> 100 µM							> 100 µM	> 100 µM						> 100 µM	3.63 µM	3.12 µM	
O=C1c2cc3c(cc2[C@@H]2C(O)[C@H]4O[C@H]4C4CCN1C42)OCO3 (some centres not stated)	> 37.5 µM	> 37.5 µM		> 37.5 µM		> 37.5 µM			> 37.5 µM		> 37.5 µM	> 37.5 µM	> 37.5 µM							
CCOC(=O)c1sc2nc(SC)nc3c2c1NC(=O)CN3c1ccc(F)cc1						93.4 µM				> 100 µM	36.2 µM	> 100 µM		> 100000 nM						
C[C@@]12CC[C@@H](O)C[C@@H]1CC[C@H]1[C@H]2CC[C@@]2(C)[C@H](c3ccc(=O)oc3)CC[C@@]12O			0.0263 µM							0.0467 µM	0.0344 µM					28.5 nM	< 0.01 µM	< 0.01 µM	< 0.0135 µM	< 10 nM
Cc1ccc(C(=O)NC2C(=O)NC(C(C)C)C(=O)N3CCCC3C(=O)N(C)CC(=O)N(C)C(C(C)C)C(=O)OC2C)c2c1Oc1c(c(C(=O)NC3C(=O)NC(C(C)C)C(=O)N4CCCC4C(=O)N(C)CC(=O)N(C)C(C(C)C)C(=O)OC3C)c3nc(-c4ccccc4)c(=O)oc3c1C)N2 (configuration not stated)			0.0132 µM			0.801 µM				0.122 µM				23.6 nM		2590 nM and 2370 nM				85.6 nM
